{"source": "PubChem BioAssay AID1963443", "about": "(Molecular Pharmacology Branch, DTP, NCI, 2024)", "tested_on": "MDA-MB-231 complex spheroids, growth inhibition", "assay": "Anticancer human tumor MDA-MB-231 cell line growth inhibition [Asc];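 on all read-outs here: spheroids exposed to compounds for 7 days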", "settings": "for IC50: curve of first compound; for viability, T/C: stronger effect = lower value", "procedure,_shortened": "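Complex spheroids combining tumor cells with HUVEC endothelial cells and human MSCs, at 37 degrees C, 5% CO2; agents tested alone or combined, half-log dilutions from at or near clinical Cmax, or 10 microM if Cmax unknown.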", "key": {"[1]": {"settings": "second compound 0.1 µM, first compound 0.0316 µM"}, "[2]": {"settings": "second compound 0.1 µM, first compound 0.1 µM"}, "[3]": {"settings": "second compound 0.1 µM, first compound 0.316 µM"}, "[4]": {"settings": "second compound 0.1 µM, first compound 1 µM"}, "[5]": {"settings": "second compound 0.316 µM, first compound 0.0316 µM"}, "[6]": {"settings": "second compound 0.316 µM, first compound 0.1 µM"}, "[7]": {"settings": "second compound 0.316 µM, first compound 0.316 µM"}, "[8]": {"settings": "second compound 0.316 µM, first compound 1 µM"}, "[9]": {"settings": "second compound 1 µM, first compound 0.0316 µM"}, "[10]": {"settings": "second compound 1 µM, first compound 0.1 µM"}, "[11]": {"settings": "second compound 1 µM, first compound 0.316 µM"}, "[12]": {"settings": "second compound 1 µM, first compound 1 µM"}}}
{"smiles": "COc1c(OCCCN2CCOCC2)ccc2c3n(c(=NC(=O)c4cnc(N)nc4)nc12)CCN3", "note": "+ Cc1c(S(C)(=O)=O)c(-c2cc(F)cc(N3CCN(c4ccc(NS(=O)(=O)c5ccc(NC(CCN6CCC(C(=O)OCCCP(=O)(O)O)CC6)CSc6ccccc6)c(S(=O)(=O)C(F)(F)F)c5)cc4)CC3)c2)c(-c2ccc(Cl)cc2)n1C(C)C", "values": [{"measurement": "IC50", "setting": "second compound 0.1 µM", "result": 95.4, "unit": "nM"}, {"measurement": "IC50", "setting": "second compound 0.316 µM", "result": 72.9, "unit": "nM"}, {"measurement": "IC50", "setting": "second compound 1 µM", "result": 64.2, "unit": "nM"}, {"measurement": "IC50", "setting": "second compound 3.16 µM", "result": 44.5, "unit": "nM"}, {"measurement": "IC50", "setting": "second compound 10 µM", "result": 49, "unit": "nM"}, {"measurement": "viability, T/C", "setting": "second compound 0.1 µM, first compound 0.00316 µM", "result": 85.8, "unit": "%"}, {"measurement": "viability, T/C", "setting": "second compound 0.1 µM, first compound 0.01 µM", "result": 85.2, "unit": "%"}, {"measurement": "viability, T/C", "setting": "[1]", "result": 67.7, "unit": "%"}, {"measurement": "viability, T/C", "setting": "[2]", "result": 49.3, "unit": "%"}, {"measurement": "viability, T/C", "setting": "[3]", "result": 31.3, "unit": "%"}, {"measurement": "viability, T/C", "setting": "[4]", "result": 20.1, "unit": "%"}, {"measurement": "viability, T/C", "setting": "second compound 0.316 µM, first compound 0.00316 µM", "result": 94.6, "unit": "%"}, {"measurement": "viability, T/C", "setting": "second compound 0.316 µM, first compound 0.01 µM", "result": 81.1, "unit": "%"}, {"measurement": "viability, T/C", "setting": "[5]", "result": 63, "unit": "%"}, {"measurement": "viability, T/C", "setting": "[6]", "result": 47, "unit": "%"}, {"measurement": "viability, T/C", "setting": "[7]", "result": 24.3, "unit": "%"}, {"measurement": "viability, T/C", "setting": "[8]", "result": 12.1, "unit": "%"}, {"measurement": "viability, T/C", "setting": "second compound 1 µM, first compound 0.00316 µM", "result": 94.8, "unit": "%"}, {"measurement": "viability, T/C", "setting": "second compound 1 µM, first compound 0.01 µM", "result": 85.1, "unit": "%"}, {"measurement": "viability, T/C", "setting": "[9]", "result": 66, "unit": "%"}, {"measurement": "viability, T/C", "setting": "[10]", "result": 40.8, "unit": "%"}, {"measurement": "viability, T/C", "setting": "[11]", "result": 17.6, "unit": "%"}, {"measurement": "viability, T/C", "setting": "[12]", "result": 8.74, "unit": "%"}, {"measurement": "viability, T/C", "setting": "second compound 3.16 µM, first compound 0.00316 µM", "result": 88.1, "unit": "%"}, {"measurement": "viability, T/C", "setting": "second compound 3.16 µM, first compound 0.01 µM", "result": 84.2, "unit": "%"}, {"measurement": "viability, T/C", "setting": "second compound 3.16 µM, first compound 0.0316 µM", "result": 54.6, "unit": "%"}, {"measurement": "viability, T/C", "setting": "second compound 3.16 µM, first compound 0.1 µM", "result": 32.8, "unit": "%"}, {"measurement": "viability, T/C", "setting": "second compound 3.16 µM, first compound 0.316 µM", "result": 12.1, "unit": "%"}, {"measurement": "viability, T/C", "setting": "second compound 3.16 µM, first compound 1 µM", "result": 5.37, "unit": "%"}, {"measurement": "viability, T/C", "setting": "second compound 10 µM, first compound 0.00316 µM", "result": 90.3, "unit": "%"}, {"measurement": "viability, T/C", "setting": "second compound 10 µM, first compound 0.01 µM", "result": 85.1, "unit": "%"}, {"measurement": "viability, T/C", "setting": "second compound 10 µM, first compound 0.0316 µM", "result": 59.8, "unit": "%"}, {"measurement": "viability, T/C", "setting": "second compound 10 µM, first compound 0.1 µM", "result": 32.5, "unit": "%"}, {"measurement": "viability, T/C", "setting": "second compound 10 µM, first compound 0.316 µM", "result": 10.2, "unit": "%"}, {"measurement": "viability, T/C", "setting": "second compound 10 µM, first compound 1 µM", "result": 3.64, "unit": "%"}]}
{"smiles": "C=CC(=O)N1CCN(c2nc(=O)n(-c3c(C)ccnc3C(C)C)c3nc(-c4c(O)cccc4F)c(F)cc23)C(C)C1", "note": "(stereo not given) + CNC(C)C(=O)NC1CN(S(=O)(=O)c2cccc(S(=O)(=O)N3CCC4CCC(C(=O)NC(c5ccccc5)c5ccccc5)N4C(=O)C(NC(=O)C(C)NC)C3)c2)CCC2CCC(C(=O)NC(c3ccccc3)c3ccccc3)N2C1=O", "values": [{"measurement": "IC50", "setting": "second compound 0.01 µM", "result": "< 31.6", "unit": "nM"}, {"measurement": "IC50", "setting": "second compound 0.0316 µM", "result": "< 31.6", "unit": "nM"}, {"measurement": "IC50", "setting": "second compound 0.1 µM", "result": "< 31.6", "unit": "nM"}, {"measurement": "IC50", "setting": "second compound 0.316 µM", "result": "< 31.6", "unit": "nM"}, {"measurement": "IC50", "setting": "second compound 1 µM", "result": "< 31.6", "unit": "nM"}, {"measurement": "viability, T/C", "setting": "second compound 0.01 µM, first compound 0.0316 µM", "result": 4.27, "unit": "%"}, {"measurement": "viability, T/C", "setting": "second compound 0.01 µM, first compound 0.1 µM", "result": 4.47, "unit": "%"}, {"measurement": "viability, T/C", "setting": "second compound 0.01 µM, first compound 0.316 µM", "result": 3.48, "unit": "%"}, {"measurement": "viability, T/C", "setting": "second compound 0.01 µM, first compound 1 µM", "result": 4.14, "unit": "%"}, {"measurement": "viability, T/C", "setting": "second compound 0.01 µM, first compound 3.16 µM", "result": 3.21, "unit": "%"}, {"measurement": "viability, T/C", "setting": "second compound 0.01 µM, first compound 10 µM", "result": 2.6, "unit": "%"}, {"measurement": "viability, T/C", "setting": "second compound 0.0316 µM, first compound 0.0316 µM", "result": 1.6, "unit": "%"}, {"measurement": "viability, T/C", "setting": "second compound 0.0316 µM, first compound 0.1 µM", "result": 1.97, "unit": "%"}, {"measurement": "viability, T/C", "setting": "second compound 0.0316 µM, first compound 0.316 µM", "result": 3.62, "unit": "%"}, {"measurement": "viability, T/C", "setting": "second compound 0.0316 µM, first compound 1 µM", "result": 3.15, "unit": "%"}, {"measurement": "viability, T/C", "setting": "second compound 0.0316 µM, first compound 3.16 µM", "result": 2.97, "unit": "%"}, {"measurement": "viability, T/C", "setting": "second compound 0.0316 µM, first compound 10 µM", "result": 3.77, "unit": "%"}, {"measurement": "viability, T/C", "setting": "[1]", "result": 1.84, "unit": "%"}, {"measurement": "viability, T/C", "setting": "[2]", "result": 1.71, "unit": "%"}, {"measurement": "viability, T/C", "setting": "[3]", "result": 1.31, "unit": "%"}, {"measurement": "viability, T/C", "setting": "[4]", "result": 0.87, "unit": "%"}, {"measurement": "viability, T/C", "setting": "second compound 0.1 µM, first compound 3.16 µM", "result": 2.25, "unit": "%"}, {"measurement": "viability, T/C", "setting": "second compound 0.1 µM, first compound 10 µM", "result": 1.71, "unit": "%"}, {"measurement": "viability, T/C", "setting": "[5]", "result": 1.02, "unit": "%"}, {"measurement": "viability, T/C", "setting": "[6]", "result": 1.06, "unit": "%"}, {"measurement": "viability, T/C", "setting": "[7]", "result": 2.22, "unit": "%"}, {"measurement": "viability, T/C", "setting": "[8]", "result": 1.43, "unit": "%"}, {"measurement": "viability, T/C", "setting": "second compound 0.316 µM, first compound 3.16 µM", "result": 1.4, "unit": "%"}, {"measurement": "viability, T/C", "setting": "second compound 0.316 µM, first compound 10 µM", "result": 2.33, "unit": "%"}, {"measurement": "viability, T/C", "setting": "[9]", "result": 1.09, "unit": "%"}, {"measurement": "viability, T/C", "setting": "[10]", "result": 1.13, "unit": "%"}, {"measurement": "viability, T/C", "setting": "[11]", "result": 1.81, "unit": "%"}, {"measurement": "viability, T/C", "setting": "[12]", "result": 1.73, "unit": "%"}, {"measurement": "viability, T/C", "setting": "second compound 1 µM, first compound 3.16 µM", "result": 1.35, "unit": "%"}, {"measurement": "viability, T/C", "setting": "second compound 1 µM, first compound 10 µM", "result": 3.82, "unit": "%"}]}
